The text below walks through data of patent publication US5707989A, “Pyrimido[5,4-D]pyrimidines, medicaments comprising these compounds, their use and processes for their preparation” (Dr. Karl Thomae GmbH, priority 1994, dated 1998).

Format in all cases: cell-based
The target of one assay is T1, human EGF-R (Homo sapiens, UniProt P00533).
T1 construct: expressed in transfected cells; host or cells: F/L-HERc cells: murine IL-3-dependent line FDC-P1 infected with recombinant retrovirus (LXSN vector, GP+E86 packaging line) carrying human EGF-R cDNA
T1 sequence (P00533 25-1210): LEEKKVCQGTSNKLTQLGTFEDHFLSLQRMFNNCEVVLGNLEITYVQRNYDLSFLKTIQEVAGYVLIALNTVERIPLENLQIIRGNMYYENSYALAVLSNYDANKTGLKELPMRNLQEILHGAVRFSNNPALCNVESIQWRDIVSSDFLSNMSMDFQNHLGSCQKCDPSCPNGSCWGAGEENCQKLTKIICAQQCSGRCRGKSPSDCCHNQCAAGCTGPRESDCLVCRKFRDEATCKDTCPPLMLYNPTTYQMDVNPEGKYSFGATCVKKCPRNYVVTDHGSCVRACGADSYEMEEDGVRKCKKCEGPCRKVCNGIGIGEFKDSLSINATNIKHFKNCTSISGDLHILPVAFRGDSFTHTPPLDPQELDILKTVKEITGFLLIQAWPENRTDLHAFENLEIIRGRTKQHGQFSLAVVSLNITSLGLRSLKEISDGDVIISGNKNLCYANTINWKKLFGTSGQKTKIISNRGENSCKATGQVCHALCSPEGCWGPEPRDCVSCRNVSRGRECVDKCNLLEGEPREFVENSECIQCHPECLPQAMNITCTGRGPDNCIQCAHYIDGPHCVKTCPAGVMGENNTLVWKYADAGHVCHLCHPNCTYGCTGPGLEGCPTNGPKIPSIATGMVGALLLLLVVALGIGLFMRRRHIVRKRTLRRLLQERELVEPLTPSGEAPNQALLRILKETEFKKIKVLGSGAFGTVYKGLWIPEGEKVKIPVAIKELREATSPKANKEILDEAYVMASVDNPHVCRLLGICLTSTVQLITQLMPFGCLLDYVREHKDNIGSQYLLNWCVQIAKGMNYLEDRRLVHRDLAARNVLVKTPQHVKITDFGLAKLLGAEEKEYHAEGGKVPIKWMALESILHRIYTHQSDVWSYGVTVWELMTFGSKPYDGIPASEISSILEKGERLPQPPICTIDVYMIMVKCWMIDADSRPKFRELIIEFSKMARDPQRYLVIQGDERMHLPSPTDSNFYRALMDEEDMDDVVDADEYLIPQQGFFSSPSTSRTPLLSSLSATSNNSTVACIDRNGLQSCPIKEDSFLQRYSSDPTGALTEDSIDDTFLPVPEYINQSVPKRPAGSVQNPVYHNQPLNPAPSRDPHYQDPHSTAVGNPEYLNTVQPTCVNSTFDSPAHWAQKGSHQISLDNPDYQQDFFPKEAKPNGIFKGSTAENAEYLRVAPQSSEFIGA
The assay is described as follows: Inhibition of EGF-dependent proliferation of F/L-HERc cells. The conditions noted are these: human EGF 20 ng/ml, 48 hours. The text has this: (§1) The inhibition of EGF-R-mediated signal transmission can be detected, for example, with cells which express human EGF-R, the survival and proliferation of which depend on stimulation by EGF or TGF-alpha. An interleukin-3 (IL-3)-dependent cell line of murine origin which was changed genetically such that it expresses functional human EGF-R was used here. The proliferation of these cells, called F/L-HERc, can therefore be stimulated either by murine IL-3 or by EGF (see von Ruden, T. et al. in EMBO J. 7, 2749-2756 (1988) and Pierce, J. H. et al. in Science 239, 628-631 (1988)).
(§2) The starting material used for the F/L-HERc cells was the cell line FDC-P1, the preparation of which has been described by Dexter, T. M. et al. in J. Exp. Med. 152, 1036-1047 (1980). Alternatively, however, other growth factor-dependent cells can also be used (see, for example, Pierce, J. H. et al. in Science 239, 628-631 (1988), Shibuya, H. et al. in Cell 70, 57-67 (1992) and Alexander, W. S. et al. in EMBO J. 10, 3683-3691 (1991)). Recombinant retroviruses were used for expression of the human EGF-R cDNA (see Ullrich, A. et al. in Nature 309, 418-425 (1984)), as described in yon Ruden, T. et al., EMBO J. 7, 2749-2756 (1988), with the difference that the retroviral vector LXSN (see Miller, A. D. et al. in BioTechniques 7, 980-990 (1989)) was used for expression of the EGF-R cDNA and the line GP+E86 (see Markowitz, D. et al. in J. Virol. 62, 1120-1124 (1988)) was used as the packing cell.
(§3) The test was carried out as follows:
(§4) F/L HERc cells were cultured at 37° C. and 5% CO2 in RPMI/1640 medium (BioWhittaker), supplemented with 10% foetal bovine serum (FCS, Boehringer Mannheim), 2 mM glutamine (BioWhittaker), standard antibiotics and 20 ng/ml of human EGF (Promega). For investigation of the inhibitory activity of the compounds according to the invention, 1.5×10^4 cells per well were cultured in triplicate in 96-well plates in the above medium (200 μl), proliferation of the cells being stimulated with either EGF (20 ng/ml) or murine IL-3. Culture stocks of the cell line X63/0 mIL-3 were used as the source for IL-3 (see Karasuyama, H. et al. in Eur. J. Immunol. 18, 97-104 (1988)). The compounds according to the invention were dissolved in 100% dimethyl sulphoxide (DMSO) and added to the cultures in various dilutions, the maximum DMSO concentration being 1%. The cultures were incubated at 37° C. for 48 hours.
(§5) To determine the inhibitory activity of the compounds according to the invention, the relative cell count was measured in OD units with Cell Titer 96™ Aqueous Non-Radioactive Cell Proliferation Assay (Promega). The relative cell count was calculated in per cent of the control (F/LHERc cells without inhibitor) and the active compound concentration which inhibits the proliferation of the cells to 50% (IC50) was deduced.

A further assay relates to F/L-HERc cells. The assay is described as follows: Inhibition of IL-3-dependent proliferation of F/L-HERc cells. Conditions: Mus musculus, murine IL-3, 48 hours.
From the text: as §1, §2, §3, §4, §5

Assay [1] has as its system human tumour cell line KB. Nature of the assay: EGF/TGF-alpha-stimulated proliferation (thymidine incorporation) of KB cells. The conditions noted are these: TGF-alpha 10 ng/ml or EGF 20 ng/ml, 60 hours, then [3H]-thymidine 16-18 hours, read-out: IC50 for inhibition of the EGF/TGF-alpha-stimulated KB cell proliferation. As to the method: KB cells (obtained from ATCC) were passaged in DMEM (BioWhittaker) in the presence of 10% FCS (Boehringer Mannheim), 50 μM beta-mercaptoethanol and standard antibiotics. As an indicator of EGF/TGF-alpha-stimulated cell proliferation, the EGF-inducedDNA synthesis was determined by measurement of the incorporation of radioactively labelled thymidine. For this, the celels were washed twice and 1500 cells per well were plated out in a 96-well plate in 200 μl IMDM (BioWhittaker) without serum in the presence of 50 μM beta-mercaptoethanol, standard antibiotics, TGF-alpha [10 ng/ml] or EGF [20 ng/ml] and various concentrations of the substances according to the invention (triplicates, maximum DMSO concentration 1%, see proliferation test with F/L-HERc cells). After 60 hours, [^3 H]-thymidine (0.1 μCi in 10 μl) was added for about 16-18 hours. Subsequent measurement of the thymidine incorporation gave IC50 values of 0.1-1 μM for inhibition of the EGF/TGF-alpha-stimulated KB cell proliferation for compounds 2, 6, 17, 18, 19, 72, 83, 93, 95, 96 and 104 of Example 1.
(In general: Uptake of a labelled nucleoside into DNA is a usual measure of proliferation.)

Molecules are shown by their SMILES. Some results are limits rather than exact numbers.

In the case of `Cc1cccc(Nc2ncnc3cnc(NC(C)(C)C)nc23)c1` [1(6), 4-[(3-Methylphenyl)amino]-6-(tert-butylamino)-pyrimido[5,4-d]pyrimidine], the IC50 at human EGF-R is 5 nM; in the assay on F/L-HERc cells, above 10000 nM; in assay [1], 100 to 1000 nM. Take `Cc1cccc(Nc2ncnc3cnc(NC4CC4)nc23)c1` [1(17), 4-[(3-Methylphenyl)amino]-6-(cyclopropylamino)-pyrimido[5,4-d]pyrimidine]: the IC50 was 40 nM on human EGF-R, above 3000 nM in the assay with F/L-HERc cells and 100 to 1000 nM in assay [1].

Turning to `Cc1cccc(Nc2ncnc3cnc(N4CCOCC4)nc23)c1` [1(19), 4-[(3-Methylphenyl)amino]-6-(morpholino)-pyrimido[5,4-d]pyrimidine], the IC50 against human EGF-R was 50 nM; with F/L-HERc cells, above 10000 nM; in assay [1] it was 100 to 1000 nM. With `Cc1cccc(Nc2ncnc3cnc(N[C@H]4CC[C@H](O)CC4)nc23)c1` [1(72), 4-[(3-Methylphenyl)amino]-6-[(trans-4-hydroxycyclohexyl)amino]-pyrimido[5,4-d]pyrimidine], the IC50 against human EGF-R was 3 nM; in the assay with F/L-HERc cells, above 3000 nM; in assay [1], 100 to 1000 nM. Regarding `Cc1cccc(Nc2ncnc3cnc(NC(C)C)nc23)c1` [Example 1(2), 4-[(3-Methylphenyl)amino]-6-(isopropylamino)-pyrimido[5,4-d]pyrimidine], the IC50 in assay [1] lay within 100 to 1000 nM. On to `Cc1cccc(Nc2ncnc3cnc(N4CCCC4)nc23)c1` [Example 1(18), 4-[(3-Methylphenyl)amino]-6-(1-pyrrolidinyl)-pyrimido[5,4-d]pyrimidine], for which, in assay [1], the IC50 lay in the range of 100 to 1000 nM. For the compound `Clc1cccc(Nc2ncnc3cnc(NC4CC4)nc23)c1` [Example 1(83), 4-[(3-Chlorophenyl)amino]-6-(cyclopropylamino)-pyrimido[5,4-d]pyrimidine], the IC50 in assay [1] fell in the range of 100 to 1000 nM. `Clc1cccc(Nc2ncnc3cnc(N4CCCC4)nc23)c1` [Example 1(93), 4-[(3-Chlorophenyl)amino]-6-(1-pyrrolidinyl)-pyrim-ido[5,4-d]pyrimidine]: the IC50 in assay [1] was in the range of 100 to 1000 nM.

Consider `CC(C)Nc1ncc2ncnc(Nc3cccc(Br)c3)c2n1` [Example 1(95), 4-[(3-Bromophenyl)amino]-6-(isopropylamino)-pyrimido[5,4-d]pyrimidine], for which the IC50 in assay [1] was in the range of 100 to 1000 nM. Same read-out and setting: the value for `CC(C)Nc1ncc2ncnc(Nc3cccc(Cl)c3)c2n1` [Example 1(96), 4-[(3-Chlorophenyl)amino]-6-(isopropylamino)-pyrim-ido[5,4-d]pyrimidine] was 100 to 1000 nM. On the same count and under the same terms, next, `O[C@H]1CC[C@H](Nc2ncc3ncnc(Nc4cccc(Br)c4)c3n2)CC1` [Example 1(104), 4-[(3-Bromophenyl)amino]-6-[(trans-4-hydroxycyclohexyl)-amino]pyrimido[5,4-d]pyrimidine]: 100 to 1000 nM.
